Patent publication US20070225316A1, “Methods and compositions for treating schizophrenia” (priority 2006, published 2007)
Structures can show the parent of a compound that is named as a salt.

Test system: NMDA receptors (NMDA-induced currents)
Assay: Patch clamp (whole cell) registration of NMDA-induced currents in cultured rat hippocampus neurons
Assay type: cell-based
Settings: for Change of the blocking effect of MK-801 on NMDA-induced currents after preliminary application of the substance: result in words
Experimental: Experiments were carried out by the patch clamp method on freshly isolated neurons of a rat brain cortex or on cultured rat hippocampus neurons. Neurons for cultivation were obtained from the hippocampus of neonatal rats (1-2 days) by the method of trypsinization followed by pipetting. Cells suspended in culture medium were placed in 3 mL quantities into the wells of a 6-well planchette (Nunc) or into Petri dishes, in which glasses coated with poly-L-lysine had first been placed. The cell concentration as a rule was […]. The culture medium consisted of Eagle's minimum medium and a DME/F12 medium (1:1) supplemented with 10% calf serum, glutamine (2 mM), gentamycin (50 μg/mL), glucose (15 mM) and 20 mM KCl, with the pH brought to 7-7.4 using NaHCO3. Planchettes containing cultures were placed in a CO2— incubator at 37° C. and 100% humidity. Cytosine arabinoside 10-20 μL was added on the second to third day of cultivation. After 6-7 days of cultivation 1 mg/mL glucose was added to the medium, or the medium was exchanged, depending on the following experiment. The cultured hippocampus neurons were placed in a 0.4 mL working chamber. The working solution had the following composition (mM): NaCl 150.0, KCl 5.0, CaCl2 2.6, MgSO4×7H2O 2.0, HEPES 10.0, glucose 15.0, pH 7.36.
Transmembrane currents produced by application of NMDA were registered by the patch clamp electrophysiological method in the whole cell configuration. Application of substances was done by the method of rapid superfusion. Currents were registered with the aid of borosilicate microelectrodes (resistance […]) filled with the following composition (mM): KCl 100.0, EGTA 11.0, CaCl2 1.0, MgCl2 1.0, HEPES 10.0, ATP 5.0 pH 7.2. An EPC-9 instrument (HEKA, Germany) was used for registration. Currents were recorded on the hard disk of a Pentium-IV PC using the pulse program, which is also purchased from HEKA. The results were analyzed with the aid of the Pulsefit program (HEKA).

Cc1ccc2c(c1)c1c(n2CCc2ccc(C)nc2)CCN(C)C1 [Dimebon, 2,8-dimethyl-5-[2-(6-methylpyridyl-3)ethyl]-2,3,4,5-tetrahydro-1H-pyrido[4,3-b]indole dihydrochloride]
IC50 (cultured rat hippocampus neurons, range and average printed, dihydrochloride, read-out: IC50 of blocking effect on currents caused by application of NMDA): 7.7 ± 1.9 µM | Blockade of NMDA-induced currents (%) (dimebon alone at 10 μM): By 50-70% at 10 μM | Blockade of NMDA-induced currents (%) by MK-801 after preliminary perfusion with dimebon (preliminary perfusion with dimebon 10 μM, then MK-801): 40±18% | Change of the blocking effect of MK-801 on NMDA-induced currents after preliminary application of the substance: capable of reducing the blocking effect of MK-801

N[C@H](CCCP(=O)(O)O)C(=O)O [D-AP5, D-2-amino-5-phosphonovaleric acid]
Change of the blocking effect of MK-801 on NMDA-induced currents after preliminary application of the substance: did not decrease the blocking effect of MK-801
